Measurements as given in patent US20080200454A1, “CARBON-LINKED TETRAHYDRO-PYRAZOLO-PYRIDINE MODULATORS OF CATHEPSIN S” (priority 2007, published 2008).
Like-named read-outs stand apart in the source and are kept apart here.

Target: Recombinant human cathepsin S (CatS) (Homo sapiens, UniProt P25774)
Experiment: Recombinant human cathepsin S (CatS) inhibition assay, fluorogenic substrate Z-Valine-Valine-Arginine-AMC;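 also: Baculovirus-expressed CatS in pH 5.0 sodium acetate buffer with DTT and NaCl, fluorescence read each minute over 20 min, inhibition derived from rate slope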

Recombinant human cathepsin S (CatS), sequence (P25774 115-331): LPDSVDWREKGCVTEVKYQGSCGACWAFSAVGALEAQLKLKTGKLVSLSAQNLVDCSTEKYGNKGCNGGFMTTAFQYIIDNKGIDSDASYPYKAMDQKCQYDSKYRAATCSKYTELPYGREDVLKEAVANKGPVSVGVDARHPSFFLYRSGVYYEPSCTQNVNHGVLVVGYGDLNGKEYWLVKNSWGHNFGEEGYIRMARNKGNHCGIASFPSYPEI

Row | Compound | IC50 | IC50 (CatS IC50)
1 | C[C@H]1COCCN1CCCn1nc(-c2ccc(Cl)c(C#Cc3ccc(Cl)c(C(=O)N4CCNCC4)c3)c2)c2c1CCN(C(=O)C(N)=O)C2 [Example 574, 2-[3-(4-Chloro-3-{[4-chloro-3-(piperazin-1-ylcarbonyl)phenyl]ethynyl}phenyl)-1-{3-[(3S)-3-methylmorpholin-4-yl]propyl}-1,4,6,7-tetrahydro-5H-pyrazolo[4,3-c]pyridin-5-yl]-2-oxoacetamide] |  | 140 nM
2 | C[C@H]1COCCN1CCCn1nc(-c2ccc(Cl)c(C#Cc3ccc(Cl)c(C(=O)N4CCCNCC4)c3)c2)c2c1CCN(C(=O)C(N)=O)C2 [Example 575, 2-[3-(4-Chloro-3-{[4-chloro-3-(1,4-diazepan-1-ylcarbonyl)phenyl]ethynyl}phenyl)-1-{3-[(3S)-3-methylmorpholin-4-yl]propyl}-1,4,6,7-tetrahydro-5H-pyrazolo[4,3-c]pyridin-5-yl]-2-oxoacetamide] |  | 170 nM
3 | C[C@H]1COCCN1CCCn1nc(-c2ccc(Cl)c(C#Cc3ccc(Cl)c(C(=O)NCCCN(C)C(=O)OC(C)(C)C)c3)c2)c2c1CCN(C(=O)C(N)=O)C2 [Example 576, tert-Butyl (3-{[(5-{[5-(5-[amino(oxo)acetyl]-1-{3-[(3S)-3-methylmorpholin-4-yl]propyl}-4,5,6,7-tetrahydro-1H-pyrazolo[4,3-c]pyridin-3-yl)-2-chlorophenyl]ethynyl}-2-chlorophenyl)carbonyl]amino}propyl)methylcarbamate] |  | 50 nM
4 | C[C@H]1COCCN1CCCn1nc(-c2ccc(Cl)c(C#Cc3ccc(Cl)c(C(=O)NCCCNC(=O)OC(C)(C)C)c3)c2)c2c1CCN(C(=O)C(N)=O)C2 [Example 577, tert-Butyl (3-{[(5-{[5-(5-[amino(oxo)acetyl]-1-{3-[(3S)-3-methylmorpholin-4-yl]propyl}-4,5,6,7-tetrahydro-1H-pyrazolo[4,3-c]pyridin-3-yl)-2-chlorophenyl]ethynyl}-2-chlorophenyl)carbonyl]amino}propyl)carbamate] |  | 20 nM

Further lines, with some results ahead:

Row | IC50 | Compound | IC50 (CatS IC50)
5 | 20 nM | NC(=O)C(=O)N1CCc2c(c(-c3ccc(Cl)c(C#Cc4ccc(Cl)c(C(=O)NC[C@@H]5CCNC5)c4)c3)nn2CCCN2CCSCC2)C1 [Example 578, 5-[(5-{5-[Amino(oxo)acetyl]-1-(3-thiomorpholin-4-ylpropyl)-4,5,6,7-tetrahydro-1H-pyrazolo[4,3-c]pyridin-3-yl}-2-chlorophenyl)ethynyl]-2-chloro-N-[(3R)-pyrrolidin-3-ylmethyl]benzamide] | 
6 | 20 nM | NC(=O)C(=O)N1CCc2c(c(-c3ccc(Cl)c(C#Cc4ccc(Cl)c(C(=O)NCC5CCCNC5)c4)c3)nn2CCCN2CCSCC2)C1 (centres unmarked) [Example 579, 5-[(5-{5-[Amino(oxo)acetyl]-1-(3-thiomorpholin-4-ylpropyl)-4,5,6,7-tetrahydro-1H-pyrazolo[4,3-c]pyridin-3-yl}-2-chlorophenyl)ethynyl]-2-chloro-N-(piperidin-3-ylmethyl)benzamide] | 
7 | 30 nM | NC(=O)C(=O)N1CCc2c(c(-c3ccc(Cl)c(C#Cc4ccc(Cl)c(C(=O)NCC5CNCCO5)c4)c3)nn2CCCN2CCSCC2)C1 (centres unmarked) [Example 580, 5-[(5-{5-[Amino(oxo)acetyl]-1-(3-thiomorpholin-4-ylpropyl)-4,5,6,7-tetrahydro-1H-pyrazolo[4,3-c]pyridin-3-yl}-2-chlorophenyl)ethynyl]-2-chloro-N-(morpholin-2-ylmethyl)benzamide] | 
8 | 30 nM | NC(=O)C(=O)N1CCc2c(c(-c3ccc(Cl)c(C#Cc4ccc(Cl)c(C(=O)NCCN5CCOCC5)c4)c3)nn2CCCN2CCSCC2)C1 [Example 581, 5-[(5-{5-[Amino(oxo)acetyl]-1-(3-thiomorpholin-4-ylpropyl)-4,5,6,7-tetrahydro-1H-pyrazolo[4,3-c]pyridin-3-yl}-2-chlorophenyl)ethynyl]-2-chloro-N-(2-morpholin-4-ylethyl)benzamide] | 
